In patent publication US20080058330A1, “Compounds and Combinations Thereof for Inhibiting Beta-Amyloid Production and Methods of Use Thereof” (Roskamp Research LLC, priority 2006, published 2008):

How the values were obtained:
7W WT APP751 CHO cells = assay: Measurement of Aβ1-40 and Aβ1-42 by ELISA after treatment with calcium channel blockers (Example 1); format: cell-based, Chinese hamster
Procedure: Chinese hamster ovary (CHO) cells, stably transfected with human APP751 (7W WT APP751 CHO cells) were used. See, e.g., Koo and Squazzo, J. Biol. Chem., Vol. 269, Issue 26, 17386-17389, July, 1994. The cells were maintained in DMEM medium supplemented with 10% fetal bovine serum and IX mixture of penicillin/streptomycin/fungizone/glutamine mixture (Cambrex, Md.) geneticin as selecting agent in 75 cm^2 cell culture flasks.
The 7W WT APP751 CHO cells were plated in 24-well cell culture plates in quadruplicate, containing 1 ml of culture medium, and treated with various calcium channel blocker compounds for 4 hours, 24 hours or 48 hours at 37° C. and 5% CO2. […] The culture medium was collected and diluted 5-fold for the 4 hours assay and 50-fold for the 24 hour assay before being assayed by ELISAs for Aβ1-40 and Aβ1-42, respectively. Concentrations of Aβ1-40 and Aβ1-42, expressed in pg/ml, were determined using commercially available ELISAs (Biosource, Calif.) in a colorimetric assay using labeled antibodies detected spectrophotometrically.

[1] = 30 μM, cells plated at low density, 24 hours (FIG. 1C)
[2] = 30 μM, cells plated at low density, 48 hours (FIG. 1D)

COc1ccc(CCCOC(Cn2ccnc2)c2ccc(OC)cc2)cc1.Cl (stereo not drawn) [SKF 96365, 1-[beta-[3-(4-methoxyphenyl)propoxy]-4-methoxyphenethyl]-1H-imidazole hydrochloride]
concentration of Aβ1-40 compared to controls (7W WT APP751 CHO cells; 15 μM, 24 hours (FIG. 1B)): significantly decreased | concentration of Aβ1-40 compared to controls (7W WT APP751 CHO cells; 30 μM (FIG. 2)): significantly decreased | concentration of Aβ1-42 compared to controls (7W WT APP751 CHO cells; 30 μM (FIG. 2)): significantly decreased | concentration of total β-amyloid compared to controls (7W WT APP751 CHO cells; 30 μM (FIG. 2)): significantly decreased | concentration of Aβ1-40 compared to controls (7W WT APP751 CHO cells; 30 μM, 24 hours (FIG. 1B)): significantly decreased

CC(C)(C)c1cc(C=C(C#N)C#N)cc(C(C)(C)C)c1O [tyrphostin A9]
concentration of Aβ1-40 compared to controls (7W WT APP751 CHO cells; 20 μM (FIG. 2)): significantly decreased | concentration of Aβ1-42 compared to controls (7W WT APP751 CHO cells; 20 μM (FIG. 2)): significantly decreased | concentration of total β-amyloid compared to controls (7W WT APP751 CHO cells; 20 μM (FIG. 2)): significantly decreased

C#CCN1C(C)=C(C(=O)OC)C(c2cccc([N+](=O)[O-])c2)C(C(=O)OCC)=C1C (stereo not drawn) [MRS 1845, N-propargylnitrendipine]
concentration of Aβ1-40 compared to controls (7W WT APP751 CHO cells; 30 μM (FIG. 3)): significantly decreased | concentration of total β-amyloid compared to controls (7W WT APP751 CHO cells; 30 μM (FIG. 3)): significantly decreased

CCOC(=O)C1=C(C)NC(C)=C(C(=O)OC)C1c1cccc([N+](=O)[O-])c1 (stereo not drawn) [nitrendipine]
concentration of Aβ1-40 compared to controls (7W WT APP751 CHO cells; 30 μM (FIG. 3)): significantly decreased | concentration of total β-amyloid compared to controls (7W WT APP751 CHO cells; 30 μM (FIG. 3)): significantly decreased | concentration of Aβ1-40 compared to controls (7W WT APP751 CHO cells; [1]): significantly decreased | concentration of Aβ1-40 compared to controls (7W WT APP751 CHO cells; [2]): significantly decreased

COC(=O)C1=C(C#N)NC(C)=C(C(=O)OC(C)C)C1c1cccc([N+](=O)[O-])c1 (stereo not drawn) [nilvadipine]
concentration of Aβ1-40 compared to controls (7W WT APP751 CHO cells; 30 μM (FIG. 3)): significantly decreased | concentration of total β-amyloid compared to controls (7W WT APP751 CHO cells; 30 μM (FIG. 3)): significantly decreased | concentration of Aβ1-40 compared to controls (7W WT APP751 CHO cells; 30 μM, 24 hours (FIG. 1B)): significantly decreased | concentration of Aβ1-40 compared to controls (7W WT APP751 CHO cells; [1]): significantly decreased | concentration of Aβ1-40 compared to controls (7W WT APP751 CHO cells; [2]): significantly decreased

CN(C)C(=O)C(CCN1CCC(O)(c2ccc(Cl)cc2)CC1)(c1ccccc1)c1ccccc1 [loperamide]
concentration of Aβ1-40 compared to controls (7W WT APP751 CHO cells; 30 μM (FIG. 4)): significantly decreased | concentration of Aβ1-42 compared to controls (7W WT APP751 CHO cells; 30 μM (FIG. 4)): significantly decreased | concentration of total β-amyloid compared to controls (7W WT APP751 CHO cells; 30 μM (FIG. 4)): significantly decreased

CCOC(=O)C1=C(C)NC(C)=C(C(=O)OCC)C1c1ccccc1I [Example 18, Diethyl 1,4-dihydro-4-(2-iodophenyl)-2,6-dimethylpyridine-3,5-dicarboxylate]
melting point: 173 to 174.5 °C

CC1=C(C(=O)OC(C)(C)C)C(c2cccc(F)c2F)C(C(=O)OC(C)(C)C)=C(C)N1 [Example 39, Di-tert-butyl 4-(2,3-difluorophenyl)-1,4-dihydro-2,6-dimethylpyridine-3,5-dicarboxylate]
melting point: 192 to 194 °C

CC1=C(C(=O)OC(C)(C)C)C(c2cccc(Cl)c2Cl)C(C(=O)OC(C)(C)C)=C(C)N1 [Example 32, Di-tert-butyl 4-(2,3-dichlorophenyl)-I14-dihydro-2,6-dimethylpyridine-3,5-dicarboxylate]
melting point: 144 to 145 °C

CCOC(=O)C1=C(C)NC(C)=C(C(=O)OCC)C1c1ccc(Cl)cc1 [Example 22, Diethyl 4-(4-chlorophenyl)-1,4-dihydro-2,6-dimethylpyridine-3,5-dicarboxylate]
melting point: 151 to 152 °C

CC1=C(C(=O)OC(C)(C)C)C(c2cccc(Br)c2)C(C(=O)OC(C)(C)C)=C(C)N1 [Example 25, Di-tert-butyl 4-(3-bromophenyl)-1,4-dihydro-2,6-dimethylpyridine-3,5-dicarboxylate]
melting point: 195 to 196 °C
